Patent US12187742B2 (XRAD Therapeutics, Inc., priority 2018, dated 2025)
Counter-ions that a name gives are not always drawn.

These compounds were tested against ATM (Homo sapiens (Human), UniProt Q13315) (assay: ATM in Cell Western Assay (pKAP1 in etoposide-treated MCF-7 cells)). Details: MCF-7 cells, etoposide 100 μM, 1 hr, pKAP1 readout.
Type: cell-based
Method in brief: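 After paraformaldehyde fixation and Triton X-100 permeabilization, immunostained plates were read by infrared scanning (ODYSSEY CLx). Compound was given as 10 doses, 3-fold dilutions from a 1 μM final top concentration.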

ATM, sequence (Q13315 whole entry): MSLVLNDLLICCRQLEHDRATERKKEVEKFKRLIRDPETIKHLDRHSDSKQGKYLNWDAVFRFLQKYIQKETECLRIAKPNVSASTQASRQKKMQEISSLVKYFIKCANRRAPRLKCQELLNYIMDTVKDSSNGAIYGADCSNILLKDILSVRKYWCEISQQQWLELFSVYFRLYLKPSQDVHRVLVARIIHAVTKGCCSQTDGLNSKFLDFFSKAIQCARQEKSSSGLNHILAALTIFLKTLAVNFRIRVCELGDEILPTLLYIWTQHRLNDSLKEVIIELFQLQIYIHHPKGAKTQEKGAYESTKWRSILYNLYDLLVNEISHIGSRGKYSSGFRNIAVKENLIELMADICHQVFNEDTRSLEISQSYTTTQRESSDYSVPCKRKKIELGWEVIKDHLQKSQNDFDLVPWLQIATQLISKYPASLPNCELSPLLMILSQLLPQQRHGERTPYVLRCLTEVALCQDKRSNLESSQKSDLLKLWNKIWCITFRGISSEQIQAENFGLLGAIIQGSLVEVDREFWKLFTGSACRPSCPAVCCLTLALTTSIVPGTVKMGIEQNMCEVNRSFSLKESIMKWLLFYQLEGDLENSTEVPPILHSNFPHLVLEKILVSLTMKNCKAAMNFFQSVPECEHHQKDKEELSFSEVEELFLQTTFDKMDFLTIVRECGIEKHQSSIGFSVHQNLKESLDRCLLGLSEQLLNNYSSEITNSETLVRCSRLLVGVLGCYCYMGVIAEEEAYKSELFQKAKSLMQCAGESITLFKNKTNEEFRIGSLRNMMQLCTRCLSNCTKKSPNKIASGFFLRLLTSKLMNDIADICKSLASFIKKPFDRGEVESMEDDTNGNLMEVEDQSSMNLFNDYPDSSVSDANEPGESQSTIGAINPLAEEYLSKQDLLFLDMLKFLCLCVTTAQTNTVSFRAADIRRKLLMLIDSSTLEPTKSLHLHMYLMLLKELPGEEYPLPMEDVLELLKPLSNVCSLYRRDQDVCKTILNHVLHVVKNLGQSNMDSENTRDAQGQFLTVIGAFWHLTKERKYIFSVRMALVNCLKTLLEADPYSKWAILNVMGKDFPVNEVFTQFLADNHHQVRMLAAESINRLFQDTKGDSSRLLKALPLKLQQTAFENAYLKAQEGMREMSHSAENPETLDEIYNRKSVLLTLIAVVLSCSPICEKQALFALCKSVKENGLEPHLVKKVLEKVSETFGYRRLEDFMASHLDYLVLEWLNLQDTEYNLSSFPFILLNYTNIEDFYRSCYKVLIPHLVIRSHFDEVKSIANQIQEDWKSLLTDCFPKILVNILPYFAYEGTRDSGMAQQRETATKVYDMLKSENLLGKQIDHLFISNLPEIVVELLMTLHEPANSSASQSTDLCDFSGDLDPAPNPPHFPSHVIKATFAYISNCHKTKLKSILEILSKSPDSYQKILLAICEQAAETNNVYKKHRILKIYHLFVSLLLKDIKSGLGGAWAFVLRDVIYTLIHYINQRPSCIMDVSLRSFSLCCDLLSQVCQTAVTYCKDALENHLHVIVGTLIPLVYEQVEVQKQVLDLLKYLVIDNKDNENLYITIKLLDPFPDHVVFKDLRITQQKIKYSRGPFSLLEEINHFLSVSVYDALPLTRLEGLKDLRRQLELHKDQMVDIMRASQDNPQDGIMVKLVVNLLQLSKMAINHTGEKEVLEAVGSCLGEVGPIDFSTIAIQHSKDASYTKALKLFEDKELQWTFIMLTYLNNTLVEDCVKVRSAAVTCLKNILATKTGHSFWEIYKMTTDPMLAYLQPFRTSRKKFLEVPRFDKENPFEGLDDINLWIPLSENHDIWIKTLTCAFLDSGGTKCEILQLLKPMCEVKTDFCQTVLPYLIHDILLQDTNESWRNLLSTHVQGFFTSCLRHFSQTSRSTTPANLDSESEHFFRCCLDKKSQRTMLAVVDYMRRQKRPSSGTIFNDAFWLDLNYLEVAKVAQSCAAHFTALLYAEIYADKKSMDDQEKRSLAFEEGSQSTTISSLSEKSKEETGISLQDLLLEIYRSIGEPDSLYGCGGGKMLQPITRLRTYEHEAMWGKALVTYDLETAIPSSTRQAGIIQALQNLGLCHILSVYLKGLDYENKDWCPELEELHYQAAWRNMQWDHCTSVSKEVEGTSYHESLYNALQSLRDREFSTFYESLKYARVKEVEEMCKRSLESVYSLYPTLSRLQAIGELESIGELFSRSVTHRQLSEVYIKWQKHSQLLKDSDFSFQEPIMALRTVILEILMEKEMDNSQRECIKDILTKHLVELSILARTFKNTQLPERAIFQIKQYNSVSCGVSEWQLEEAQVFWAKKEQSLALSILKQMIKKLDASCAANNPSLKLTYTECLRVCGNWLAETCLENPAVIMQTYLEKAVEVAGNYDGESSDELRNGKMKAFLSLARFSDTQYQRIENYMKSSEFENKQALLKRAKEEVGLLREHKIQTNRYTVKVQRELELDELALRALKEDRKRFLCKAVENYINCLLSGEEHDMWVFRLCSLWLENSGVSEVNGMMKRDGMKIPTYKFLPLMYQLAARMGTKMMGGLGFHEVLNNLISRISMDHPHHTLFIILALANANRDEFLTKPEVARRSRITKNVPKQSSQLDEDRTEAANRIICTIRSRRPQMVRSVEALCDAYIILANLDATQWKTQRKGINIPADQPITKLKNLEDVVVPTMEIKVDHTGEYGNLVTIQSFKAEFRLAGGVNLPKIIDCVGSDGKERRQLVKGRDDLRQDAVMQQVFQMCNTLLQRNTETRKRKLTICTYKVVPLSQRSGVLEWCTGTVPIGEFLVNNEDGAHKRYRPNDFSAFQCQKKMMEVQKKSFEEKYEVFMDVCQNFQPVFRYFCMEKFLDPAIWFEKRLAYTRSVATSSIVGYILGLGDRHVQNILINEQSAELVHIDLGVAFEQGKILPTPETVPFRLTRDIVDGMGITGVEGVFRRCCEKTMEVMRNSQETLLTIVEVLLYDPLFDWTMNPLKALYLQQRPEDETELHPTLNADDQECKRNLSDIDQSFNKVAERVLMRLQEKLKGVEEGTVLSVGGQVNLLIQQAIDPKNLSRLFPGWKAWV

SMILES | IC50
CN1C(=O)C2(CC2)c2c1cnc1ccc(-c3cncc(C(C)(C)O)c3)cc21 [Example 25, 8′-(5-(2-Hydroxypropan-2-yl)pyridin-3-yl)-3 methylspiro[cyclopropane-1,1′-pyrrolo[2,3-c]quinolin]-2′(3′-H)-one] | > 100 nM
COc1ncc(-c2ccc3ncc4c(c3c2)C2(CC2)C(=O)N4C)cc1C(C)(C)O [Example 26, 8′-(5-(2-Hydroxypropan-2-yl)-6-methoxypyridin-3-yl)-3′-methylspiro [cyclopropane-1,1′-pyrrolo[2,3-c]quinolin]-2′(3′-H)-one] | > 100 nM
CC(CCOc1ncc(-c2ccc3ncc4c(c3c2)C2(CCC2)C(=O)N4C)cc1NS(C)(=O)=O)N(C)C (stereo not shown) [Example 292, N-(2-(3-(Dimethylamino)butoxy)-5-(3′-methyl-2′-oxo-2′,3′-dihydrospiro [cyclobutane-1,1′-pyrrolo[2,3-c]quinolin]-8′-yl)pyridin-3-yl)methanesulfonamide] | 1 to 100 nM

Further lines, results first:

IC50 | SMILES
1 to 100 nM | CN(C)CCCNc1ncc(-c2ccc3ncc4c(c3c2)C2(CCC2)C(=O)N4C)cc1NS(C)(=O)=O [Example 259, N-(2-((3-(Dimethylamino)propyl)amino)-5-(3′-methyl-2′-oxo-2′,3′-dihydrospiro[cyclobutane-1,1′-pyrrolo[2,3-c]quinolin]-8′-yl)pyridin-3-yl)methanesulfonamide]
1 to 100 nM | CN1C(=O)C2(CCC2)c2c1cnc1ccc(-c3cnc(OCCCN4CCNCC4)c(NS(C)(=O)=O)c3)cc21 [Example 300, N-(5-(3′-Methyl-2′-oxo-2′,3′-dihydrospiro[cyclobutane-1,1′-pyrrole[2,3-c]quinolin]-8′-yl)-2-(3-(piperazin-1-yl)propoxy)pyridin-3-yl) methanesulfonamide]
> 100 nM | CC(C)N1C(=O)C2(CC2)c2c1cnc1ccc(-c3cnc(OCCCN(C)C)c(NS(=O)(=O)c4ccccc4)c3)cc21 [Example 31, N-(2-(3-(Dimethylamino)propoxy)-5-(3′-isopropyl-2′-oxo-2′,3′-dihydrospiro [cyclopropane-1,1′-pyrrolo[2,3-c]quinolin]-8′-yl)pyridin-3-yl) benzenesulfonamide]
1 to 100 nM | Cc1ccc(S(=O)(=O)Nc2cc(-c3ccc4ncc5c(c4c3)C3(CCC3)C(=O)N5C)cnc2OCCCN2CCC(F)(F)CC2)cc1 [Example 152, hydrochloride]
> 100 nM | Cc1ccc(S(=O)(=O)Nc2cc(-c3ccc4ncc5c(c4c3)C3(CCC3)C(=O)N5C)cnc2OCCCN2C(C)(C)CCCC2(C)C)cn1 [Example 211, 6-Methyl-N-(5-(3′-methyl-2′-oxo-2′,3′-dihydrospiro[cyclobulane-1,1′-pyrrolo[2,3-c]quinolin]-8′-yl)-2-(3-(2,2,6,6-tetramethylpiperidin-1-yl)propoxy)pyridin-3-yl)pyridine-3-sulfonamide]
< 0.5 nM | CN(C)CCCOc1ncc(-c2ccc3ncc4c(c3c2)C2(CC2)C(=O)N4C)cc1NS(=O)(=O)c1ccc(C(F)(F)F)cc1 [Example 108]

Same assay, conditions: pKAP1 in etoposide-treated MCF-7 cells

SMILES | IC50
CC(C)NCCOc1ncc(-c2cc3c4c(cnc3cc2F)N(C)C(=O)C42CN(CCO)C2)cc1NS(C)(=O)=O [Example 506, N-(5-(7′-Fluoro-1-(2-hydroxyethyl)-3′-methyl-2′-oxo-2′,3′-dihydrospiro[azetidine-3,1′-pyrrolo[2,3-c]quinolin]-8′-yl)-2-(2-(isopropylamino)ethoxy)pyridin-3-yl)methanesulfonamide] | 1 to 100 nM
CC(C)NCCOc1ncc(-c2cc3c4c(cnc3cc2F)N(C)C(=O)C42CN(c3ncccn3)C2)cc1NS(C)(=O)=O [Example 551, N-(5-(7′-Fluoro-3′-methyl-2′-oxo-1-(pyrimidin-2-yl)-2′,3′-dihydrospiro[azetidine-3,1′-pyrrolo[2,3-c]quinolin]-8′-y))-2-(2-(isopropylamino)ethoxy)pyridin-3-yl)methanesulfonamide hydrochloride] | > 100 nM
CC(C)NCCOc1ncc(-c2cc3c(cc2F)ncc2c3[C@]3(C[C@@H](N4CCCCC4)C3)C(=O)N2C)cc1NS(C)(=O)=O [Example 470, trans-N-{5-(7′-Fluoro-3′-methyl-2′-oxo-3-(piperidin-1-yl)-2′,3′-dihydrospiro[cyclobutane-1,1′-pyrrolo[2,3-c]quinolin]-8′-yl)-2-(2-(isopropylamino)ethoxy)pyridin-3-yl)methanesulfonamide hydrochloride] | 1 to 100 nM
CN1C(=O)C2(CCC2)c2c1cnc1cc(F)c(-c3cnc(N4CC(CN5CCOCC5)C4)c(NS(C)(=O)=O)c3)cc21 [Example 344, N-(5-(7′-Fluoro-3′-methyl-2′-oxo-2′,3′-dihydrospiro[cyclobutane-1,1′-pyrrolo[2,3-c]quinolin]-8′-yl)-2-(3-(morpholinomethyl)azetidin-1-yl)pyridin-3-yl)methanesulfonamideformate] | > 100 nM
CN1C(=O)C2(CCC2)c2c1cnc1ccc(-c3cnc(N4CC5CC(C4)N5C)c(NS(C)(=O)=O)c3)cc21 [Example 361, N-(5-(3′-Methyl-2′-oxo-2′,3′-dihydrospiro[cyclobutane-1,1′-pyrrolo[2,3-c]quinolin]-8′-yl)-2-(6-methyl-3,6-diazabicyclo[3.1.1]heptan-3-yl)pyridin-3-yl)methanesulfonamide formate] | > 100 nM
CC(C)NCCOc1ncc(-c2cc3c4c(cnc3cc2F)N(C)C(=O)C42CN(c3cncnc3)C2)cc1NS(C)(=O)=O [Example 549, N-(5-(7′-Fluoro-3′-methyl-2′-oxo-1-(pyrimidin-5-yl)-2′,3′-dihydrospiro[azetidine-3,1′-pyrrolo[2,3-c]quinolin]-8′-yl)-2-(2-(isopropylamino)ethoxy)pyridin-3-yl)methanesulfonamide] | > 100 nM
CN1C(=O)C2(CCC2)c2c1cnc1cc(F)c(-c3cnc(N4CC(N(C)C)C4)c(NS(=O)(=O)CC#N)c3)cc21 [Example 342, 1-Cyano-N-(2-(3-(dimethylamino)azetidin-1-yl)-5-(7′-fluoro-3′-methyl-2′-oxo-2′,3′-dihydrospiro [cyclobutane-1,1′-pyrrolo [2,3-c]quinolin]-8′-yl)pyridin-3-yl)methanesulfonamide hydrochloride] | > 100 nM
COC(=O)N1CC2(C1)C(=O)N(C)c1cnc3cc(F)c(-c4cnc(OCCNC(C)C)c(NS(C)(=O)=O)c4)cc3c12 [Example 513, Methyl7′-fluoro-8′-(6-(2-(isopropylamino)ethoxy)-5-(methylsulfonamido)pyridin-3-yl)-3′-methyl-2′-oxo-2′,3′-dihydrospiro[azetidine-3,1′-pyrrolo[2,3-c]quinoline]-1-carboxylate] | > 100 nM
COCCN1CC2(C1)C(=O)N(C)c1cnc3cc(F)c(-c4cnc(OCCNC(C)C)c(NS(C)(=O)=O)c4)cc3c12 [Example 507, N-(5-(7′-Fluoro-1-(2-methoxyethyl)-3 methyl-2′-oxo-2′,3′-dihydrospiro[azetidine-3,1′-pyrrolo[2,3-c]quinolin]-8′-yl)-2-(2-(isopropylamino)ethoxy)pyridin-3-yl)methanesulfonamide] | 1 to 100 nM
CC(C)NCCOc1ncc(-c2cc3c(cc2F)ncc2c3[C@]3(C[C@@H](c4cccc(=O)[nH]4)C3)C(=O)N2C)cc1NS(C)(=O)=O [Example 441, trans-N-(5-(7′-Fluoro-3′-methyl-2′-oxo-3-(6-oxo-1,6-dihydropyridin-2-yl)-2′,3′-dihydrospiro[cyclobutane-1,1′-pyrrolo[2,3-c]quinolin]-8′-yl)-2-(2-(isopropylamino)ethoxy)pyridin-3-yl)methanesulfonamide] | > 100 nM
CC(C)NCCOc1ncc(-c2cc3c4c(cnc3cc2F)N(C)C(=O)C42CN(C[C@@H](O)CO)C2)cc1NS(C)(=O)=O [Example 509, (R)-N-(5-(1-(2,3-Dihydroxypropyl)-7′-fluoro-3′-methyl-2′-oxo-2′,3′-dihydrospiro[azetidine-3,1′-pyrrolo[2,3-c]quinolin]-8′-yl)-2-(2-(isopropylamino)ethoxy)pyridin-3-yl)methanesulfonamide] | > 100 nM
CNC[C@H]1C[C@@]2(C1)C(=O)N(C)c1cnc3cc(F)c(-c4cnc(OCCNC(C)C)c(NS(C)(=O)=O)c4)cc3c12 [Example 455, trans-N-(5-(7′-Fluoro-3′-methyl-3-((methylamino)methyl)-2′-oxo-2′,3′-dihydrospiro[cyclobutane-1,1′-pyrrolo[2,3-c]quinolin]-8′-yl)-2-(2-(isopropylamino)ethoxy)pyridin-3-yl)methanesulfonamide hydrochloride] | > 100 nM
CC(C)NCCOc1ncc(-c2cc3c4c(cnc3cc2F)N(C)C(=O)C42CN(CC(F)F)C2)cc1NS(C)(=O)=O [Example 508, N-(5-(1-(2,2-Difluoroethyl)-7′-fluoro-3′-methyl-2′-oxo-2′,3′-dihydrospiro[azetidine-3,1′-pyrrolo[2,3-c]quinolin]-8′-yl)-2-(2-(isopropylamino)ethoxy)pyridin-3-yl)methanesulfonamide] | 1 to 100 nM
CN1CC2(C1)CN(c1ncc(-c3ccc4ncc5c(c4c3)C3(CCC3)C(=O)N5C)cc1NS(C)(=O)=O)C2 [Example 345, N-(5-(3′-Methyl-2′-oxo-2′,3′-dihydrospiro[cyclobutane-1,1′-pyrrolo[2,3-c]quinolin]-8′-yl)-2-(6-methyl-2,6-diazaspiro[3.3]heptan-2-yl)pyridin-3-yl)methanesulfonamide formate] | 1 to 100 nM

The remaining lines, values ahead:

IC50 | SMILES
1 to 100 nM | CN(C)CCCN(C)c1ncc(-c2ccc3ncc4c(c3c2)C2(CCC2)C(=O)N4C)cc1NS(C)(=O)=O [Example 362, N-(2-((3-(Dimethylamino)propyl)(methyl)amino)-5-(3′-methyl-2′-oxo-2′,3′-dihydrospiro[cyclobutane-1,1′-pyrrolo[2,3-c]quinolin]-8′-yl)pyridin-3-yl)methanesulfonamide hydrochloride]
> 100 nM | CN1C(=O)C2(CCC2)c2c1cnc1cc(F)c(-c3cnc(OCCNCC(F)(F)F)c(NS(C)(=O)=O)c3)cc21 [Example 378, N-(5-(7′-Fluoro-3′-methyl-2′-oxo-2′,3′-dihydrospiro [cyclobutane-1,1′-pyrrolo[2.3-c]quinolin]-8′-yl)-2-(2-((2,2,2-trifluoroethyl)amino)ethoxy)pyridin-3-yl) methanesulfonamide hydrochloride]
